These results are taken from US9714225B2, “Processes for the preparation of lorcaserin” (CADILA HEALTHCARE LIMITED, priority 2013, dated 2017).

Structures can show the parent of a compound that is named as a salt.

Series [1] in a line: Stability of crystalline Form I of lorcaserin hydrochloride stored packed for at least 3 months. Type of series: physicochemical. Conditions: 25° C./60% RH and 40° C./75% RH. On the procedure: The crystalline Form I of lorcaserin hydrochloride having less than 0.5% water as manufactured by the process of the present invention was subjected to stability for at least 3 months at 25° C./60% RH or at about 40° C./75% RH.
In a further aspect, the stable crystalline Form I of lorcaserin hydrochloride can be stored under nitrogen atmosphere and packed in a double polythene bag which is either heat sealed or twisted and tied with a thread (primary packing). The primary packing containing the crystalline Form I of lorcaserin hydrochloride can be kept inside a black color polyethylene bag containing a desiccant (molecular sieves) which is either heat sealed or twisted and tied, and the above double polyethylene bags may further be placed inside a triple laminated bag, optionally containing a desiccant which is either heat sealed or twisted and tied. Finally, the triple laminated bag can be kept inside a closed high density polyethylene (HDPE) container and stored in a controlled environment chamber at 25° C. and/or 40° C.

The conditions of series [2]: cited from earlier work.
The mark [3] stands for this setting: 2 Months, LDPE bag closed with a heat seal (Table 1).
Setting [4] is: 2 Months, LDPE bag closed with a twist and tie (Table 2).
Setting [5] is: 3 Months, LDPE bag closed with a heat seal (Table 1).
[6] abbreviates: 3 Months, LDPE bag closed with a twist and tie (Table 2).

Take `C[C@H]1CNCCc2ccc(Cl)cc21.Cl` [(R)-8-chloro-1-methyl-2,3,4,5-tetrahydro-1H-3-benzazepine hydrochloride]: the “Water (%)” value in series [1] (1 Month, LDPE bag closed with a heat seal (Table 1), specification Less than 0.5% w/w) was 0.31%; in series [1] (1 Month, LDPE bag closed with a twist and tie (Table 2), specification Less than 0.5% w/w) it was 0.31%; in series [1] (setting [3]) it was 0.35%; in series [1] (setting [4]), 0.35%; in series [1] (setting [5]) it was 0.35%; in series [1] (setting [6]) it was 0.35%. For the same compound, the “X-Ray Diffraction” value is “Form I” in series [1] (1 Month, LDPE bag closed with a heat seal (Table 1), specification: should confirm the Form-I); “Form I” in series [1] (1 Month, LDPE bag closed with a twist and tie (Table 2), specification: should confirm the Form-I); “Form I” in series [1] (setting [3]); “Form I” in series [1] (setting [4]); “Form I” in series [1] (setting [5]); “Form I” in series [1] (setting [6]). In addition, the Description entry in series [1] (1 Month, LDPE bag purged with nitrogen closed with a heat seal (Table 1), specification White to off-white) is recorded as “off-”; in series [1] (1 Month, LDPE bag purged with nitrogen closed with a twist and tie (Table 2), specification White to off-white), “off-”; in series [1] (setting [3]), “off-”; in series [1] (setting [4]), “off-”; in series [1] (setting [5]), “off-white”; in series [1] (setting [6]) it was “off-white”. Besides, in series [2] (DVS, between about 40 and about 80% RH), the “moisture adsorbed (calculated)” value was “about 3.8%”. For the same compound, the “relative humidity (RH) above which moisture is readily adsorbed” value in series [2] (DVS) is on record as 40-60%. The “crystalline form by XRPD after the DVS cycle” value in series [2] is recorded as “conversion to the hemihydrate (Form III)”.
As to `C[C@H]1CNCCc2ccc(Cl)cc21` [Form III, (R)-8-chloro-1-methyl-2,3,4,5-tetrahydro-1H-3-benzazepine hydrochloride hemihydrate], the water adsorbed entry in series [2] (DVS, at 90% RH) is reported as “less than 0.5%”. Moreover, the “crystalline form by XRPD after the DVS cycle” value in series [2] is recorded as “no change in crystalline form”.
